Source: patent US20090064375A1, “Paraquat Resistance Gene and a Vascular Tissue- and Trichome-specific Promoter” (priority 2003, published 2009)

System: non-transformant (wild-type Arabidopsis thaliana ecotype Col-0)
Experiment: Evaluation of paraquat resistance: growth of germinated individuals in paraquat-containing ½ MS medium, non-transformant
Type: in vivo
Conditions: 3 μM of paraquat in ½ MS agar medium, cultured for eight days at 22° C., FIG. 2C
Method: Seeds derived from the produced AtMVR gene transformant and non-transformant (wild-type Arabidopsis thaliana ecotype Col-0) were sterilely inoculated in ½ MS agar (1%) medium (2.3 g/l of Murashige and Skoog Plant Salt Mixture (Wako Pure Chemical Industries Ltd.), 1.5 mg/l of thiamine hydrochloride, 2.5 mg/l of nicotinic acid, 0.25 mg/l of pyridoxine hydrochloride, 1.5% of sucrose) containing 3 μM of paraquat (methyl viologen (Sigma Chemical Co.)), and cultured for eight days at 22° C. under irradiation of light of 60 μmol/m^2/s (cycle of 16 hrs photoperiod/8 hrs dark period). After culture, the growth of germinated individuals was evaluated. The results are shown in FIG. 2, wherein FIG. 2B is a photograph showing growth of an AtMVR gene transformant and a non-transformant in a ½ MS culture medium without paraquat, and FIG. 2C is a photograph showing growth of an AtMVR gene transformant and a non-transformant in a ½ MS culture medium with paraquat. FIG. 2A is a schematic diagram showing the location of the AtMVR gene transformant and the non-transformant in FIGS. 2B and 2C.

Question: How did the “growth of germinated individuals in a medium containing paraquat” value turn out when `C[n+]1ccc(-c2cc[n+](C)cc2)cc1` [paraquat] was run?
Answer: developed chlorosis and died
